Active and inactive are the calls of the source. The calls are words filed in the database; no cut-off is given here.
Tests used:
[1] = Displacement of [3H]alpha-BGT from nAChR in Apis mellifera (honeybee) head homogenates; type: tissue-based
[2] = Displacement of [3H]PCP from nAChR in Apis mellifera (honeybee0 head homogenates; type: tissue-based
Apis mellifera = assay: Displacement of [3H]PCP from nAChR in Apis mellifera (honeybee) head homogenates at 1000 uM; type: tissue-based
Musca domestica [3] = assay: Insecticidal activity against 3 to 5 day old female Musca domestica (house fly) assessed as compound level causing insect mortality per female applied through intrathoracic injection measured after 24 hr; type: functional
Musca domestica [4] = assay: Insecticidal activity against 3 to 5 day old female Musca domestica (house fly) assessed as induction of convulsions and paralysis applied through intrathoracic injection measured after 24 hr; type: functional, organism-based
Musca domestica [5] = assay: Insecticidal activity against 3 to 5 day old female Musca domestica (house fly) assessed as compound level causing insect mortality per female applied topically on notum measured after 24 hr; type: functional
Musca domestica [6] = assay: Insecticidal activity against 3 to 5 day old female Musca domestica (house fly) assessed as induction of leg tremors at >2 ug/female fly applied topically on notum measured after 24 hr; type: functional, organism-based
Musca domestica [7] = assay: Insecticidal activity against 3 to 5 day old female Musca domestica (house fly) assessed as induction of anesthetic effect applied topically on notum measured after 24 hr; type: functional, organism-based

SMILES | IC50 [1] | IC50 [2] | other results
O=[N+]([O-])/C=C1\NCCN1Cc1ccc(Cl)nc1 | 0.026 µM | 953 µM | 
COc1cc2c3cc1Oc1cc(ccc1O)C[C@@H]1c4c(cc(OC)c(O)c4Oc4ccc(cc4)C[C@@H]3N(C)CC2)CC[N+]1(C)C | 3.35 µM | 0.636 µM | 
CSC(C)N1CCN/C1=C\[N+](=O)[O-] (stereo unspecified) | 249 µM | 336 µM | 
O=[N+]([O-])C=C1NCCCS1 | 1360 µM | 231 µM | 
C/C(=N\C#N)N(C)Cc1ccc(Cl)nc1 [ACETAMIPRID] | 8.83 µM | 277 µM | 
C[N+](C)(C)CCOC(N)=O [CARBACHOL] | 90.1 µM | > 1000 µM | inhibition (Apis mellifera): 8.1%
CN(C)CCCN1c2ccccc2Sc2ccc(Cl)cc21 [CHLORPROMAZINE] | 151 µM | 5.8 µM | 
CCC[C@H]1CCCCN1 [CONIINE] | 166 µM | 5.56 µM | 
O=c1cccc2n1C[C@@H]1CNC[C@H]2C1 [CYTISINICLINE] | 0.267 µM | > 1000 µM | inhibition (Apis mellifera): 12.6%
C[N+]1(C)CCN(c2ccccc2)CC1 [DIMETHYLPHENYLPIPERAZINIUM IODIDE] | 7.35 µM | 385 µM | 
c1cncc(C2CCCCN2)c1 (stereo not drawn) [DL-ANABASINE] | 1.98 µM | 4.99 µM | 
O=[N+]([O-])/N=C1\NCCN1Cc1ccc(Cl)nc1 [IMIDACLOPRID] | 1.95 µM | 386 µM | LD50 (Musca domestica [3]): 0.553 µg; Activity (Musca domestica [4]): Active
CNC1(c2ccccc2Cl)CCCCC1=O (stereo unspecified) [KETAMINE] | 237 µM | 83.2 µM | 
CN1[C@@H](CC(=O)c2ccccc2)CCC[C@H]1C[C@H](O)c1ccccc1 [LOBELINE] | 4.6 µM | 158 µM | 
CNC1(C)C2CCC(C2)C1(C)C (stereo unspecified) [MECAMYLAMINE] | 346 µM | 8.98 µM | 
CN(C)C1CSSC1 [NEREISTOXIN] | 228 µM | 30.7 µM | LD50 (Musca domestica [5]): 0.49 µg; Activity (Musca domestica [6]): Active; Activity (Musca domestica [7]): Active
CN1CCC[C@H]1c1cccnc1 [NICOTINE] | 1.55 µM | 1.14 µM | LD50 (Musca domestica [5]): 14.8 µg
CCN(Cc1ccc(Cl)nc1)/C(=C/[N+](=O)[O-])NC [NITENPYRAM] | 61.3 µM | 27.6 µM | 
c1ccc(C2(N3CCCCC3)CCCCC2)cc1 [PHENCYCLIDINE] | 2.55 µM | 0.029 µM | LD50 (Musca domestica [5]): 18.4 µg; Activity (Musca domestica [7]): Active
CN1CCC[C@@H]1c1cccnc1 [R-NICOTINE] | 22.1 µM | 35 µM | 
c1csc(C2(N3CCCCC3)CCCCC2)c1 [TENOCYCLIDINE] | 1.38 µM | 0.082 µM | LD50 (Musca domestica [5]): 25 µg; Activity (Musca domestica [7]): Active
O=C1N(Cc2ccccc2)C2C[S+]3CCCC3C2N1Cc1ccccc1 (stereo unspecified) [TRIMETHAPHAN CAMSYLATE] | 0.798 µM | 440 µM | 

Source: ChEMBL document CHEMBL3045508, “Pharmacological Characteristics of Insect Nicotinic Acetyicholine Receptor with Its Ion Channel and the Comparison of the Effect of Nicotinoids and Neonicotinoids” (J Pestic Sci, 1995)
